In US12466810B2, “N-(5-(6-ethoxypyrazin-2-yl)pyridin-2-yl)-4-(2-(methylsulfonamido)pyrimidin-4-yl) tetrahydro-2H-pyran-4-carboxamide derivatives and related compounds as human CTPS1 inhibitors for the treatment of proliferative diseases” (Step Pharma S.A.S., priority 2019, dated 2025):

Legend:
human CTPS1 = target: T1, human CTPS1 (Homo sapiens, UniProt P17812); test: Human CTPS1 enzyme inhibition (ADP-Glo Max assay); assay type: biochemical; conditions: 25° C., read-out: Human CTPS1 Enzyme Inhibition IC50, grouped by potency range
T1 construct: FLAG (GG linker + DYKDDDDK); His8 (GG linker + HHHHHHHH); purchased Proteros biostructures GmbH
T1 sequence (P17812 1-591): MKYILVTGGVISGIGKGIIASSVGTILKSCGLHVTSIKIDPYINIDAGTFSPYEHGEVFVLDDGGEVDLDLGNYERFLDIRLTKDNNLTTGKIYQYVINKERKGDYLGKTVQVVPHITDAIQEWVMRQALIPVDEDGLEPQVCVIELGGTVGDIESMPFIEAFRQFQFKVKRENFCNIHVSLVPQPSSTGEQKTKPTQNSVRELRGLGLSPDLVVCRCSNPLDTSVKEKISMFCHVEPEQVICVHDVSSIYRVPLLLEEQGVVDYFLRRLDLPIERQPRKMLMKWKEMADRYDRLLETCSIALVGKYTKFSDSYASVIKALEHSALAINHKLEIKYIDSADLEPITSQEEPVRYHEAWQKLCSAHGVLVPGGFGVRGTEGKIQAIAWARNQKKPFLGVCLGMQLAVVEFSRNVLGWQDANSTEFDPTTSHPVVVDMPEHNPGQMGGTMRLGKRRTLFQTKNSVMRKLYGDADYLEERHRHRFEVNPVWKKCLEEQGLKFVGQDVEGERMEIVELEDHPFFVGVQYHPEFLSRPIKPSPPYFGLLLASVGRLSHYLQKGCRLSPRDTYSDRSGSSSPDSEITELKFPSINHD
Procedure: The enzyme inhibitory activities of compounds invented against the target of interest were determined using the ADP-Glo™ Max assay (Promega, UK). Assays for human CTPS1 were performed in 1× assay buffer containing 50 mM Tris, 10 mM MgCl2, 0.01% Tween-20, pH to 8.0 accordingly. Finally, immediately before use, L-cysteine was added to the 1× assay buffer to a final concentration of 2 mM. All reagents are from Sigma-Aldrich unless specified otherwise.
Human full length active C-terminal FLAG-Hiss-tag CTPS1 (UniProtKB—P17812, CTPS1[1-591]-[…] (CTPS1[1-591]-SEQ ID NO: 1)) was obtained from Proteros biostructures GmbH.
3× human CTPS1 protein was prepared in 1× assay buffer to the final working protein concentration required for the reaction. A 2 uL volume per well of 3× human CTPS1 protein was mixed with 2 uL per well of 3× test compound (compound prepared in 1× assay buffer to an appropriate final 3× compound concentration respective to the concentration response curve designed for the compounds under test) for 10 minutes at 25° C. The enzymatic reaction was then initiated by addition of a 2 uL per well volume of a pre-mixed substrate mix (UltraPure ATP from ADP-GIo™ Max kit (0.31 mM), GTP (0.034 mM), UTP (0.48 mM) and L-glutamine (0.186 mM)) and the mixture was incubated for an appropriate amount of time within the determined linear phase of the reaction at 25° C. under sealed plate conditions with constant agitation at 500 revolutions per minute (rpm). ADP-GIo™ Max reagent was added for 60 minutes (6 μL per well) and subsequently ADP-GIo™ Max development reagent was added for 60 minutes (12 uL per well) prior to signal detection in a microplate reader (EnVision® Multilabel Reader, Perkin Elmer). Following each reagent addition over the course of the assay, assay plates were pulse centrifuged for 30 seconds at 500 rpm.
In all cases, the enzyme converts ATP to ADP and the ADP-Glo™ Max reagent subsequently depletes any remaining endogenous ATP in the reaction system. The ADP-Glo™ Max detection reagent converts the ADP that has been enzymatically produced back into ATP and using ATP as a substrate together with luciferin for the enzyme luciferase, light is generated which produces a detectable luminescence. […] The percentage inhibition produced by each concentration of compound was calculated using the equation shown below: […]
(§1) Percentage inhibition was then plotted against compound concentration, and the 50% inhibitory concentration (IC50) was determined from the resultant concentration-response curve.

Human CTPS1 Versus CTPS2 = test: RapidFire/MS-based enzyme selectivity assay, human CTPS1 versus CTPS2; assay type: biochemical; conditions: RapidFire/MS IC50s
Procedure: Human CTPS1 Versus CTPS2 Selectivity Assessment by RapidFire/MS Analysis.
The enzyme inhibitory activities against each target isoform of interest may be determined for the compounds of the invention using an optimised RapidFire high-throughput mass spectrometry (RF/MS) assay format. RF/MS assays for both human CTPS1 and CTPS2 may be performed in assay buffer consisting of 50 mM HEPES (Merck), 20 mM MgCl2, 5 mM KCl, 1 mM DTT, 0.01% Tween-20, pH to 8.0 accordingly. Human full-length active C-terminal FLAG-His-tag CTPS1 (UniProtKB—P17812, CTPS1[1-591]-[…] (CTPS1[1-591]-SEQ ID NO: 1)) may be obtained from Proteros biostructures GmbH. Human full length active C-terminal FLAG-His-Avi tagged CTPS2 (UniProtKB—Q9NRF8, CTPS2 [1-586]—[…] (CTPS2 [1-586]-SEQ ID NO: 2)) may be obtained from Harker Bio.
Human CTPS (1 or 2) protein may be prepared in 1× assay buffer to the final working protein concentration required for the reaction. A 2 uL volume per well of 2×CTPS (1 or 2) protein may be mixed with 40 nL of compound using acoustic (ECHO) delivery and incubated for 10 minutes at 25° C. Each isoform enzymatic reaction may be subsequently initiated by addition of 2 uL per well of a 2× substrate mix in assay buffer. For hCTPS1: ATP (0.3 mM), UTP (0.2 mM), GTP (0.07 mM) and L-glutamine (0.1 mM). For hCTPS2: ATP (0.1 mM), UTP (0.04 mM), GTP (0.03 mM) and L-glutamine (0.1 mM). Each mixture may be incubated for an appropriate amount of time per isoform within the determined linear phase of the reaction at 25° C. A 60 uL volume of stop solution (1% formic acid with 0.5 uM ^13C9-^15N3-CTP in H2O) may be added and the plate immediately heat-sealed and centrifuged for 10 minutes at 4,000 rpm. Following centrifugation, plates may be loaded onto the Agilent RapidFire microfluidic solid phase extraction system coupled to an API4000 triple quadrupole mass spectrometer (RF/MS) for analysis.
In all cases, the enzyme converts UTP to CTP. Highly specific and sensitive multiple reaction monitoring (MRM) MS methods may be optimised for the detection of the enzymatic reaction product, CTP, and the stable isotope labelled product standard ^13C-^15N-CTP. Readout for data analysis may be calculated as the ratio between the peak area of the product CTP and the internal standard […]. For data reporting, the following equation may be used: […]
For each screening plate, the means of the negative (DMSO) and positive control values were used for the calculation of the respective assay window (S/B) and Z′ values. The median of the respective control values was used for calculation of percent inhibition according to the following equation: […]
as §1
Fold selectivity between CTPS1 and CTPS2 was subsequently calculated according to the following equation: […]

| SMILES | IC50 (human CTPS1) | Fold selectivity between CTPS1 and CTPS2 (CTPS1) (Human CTPS1 Versus CTPS2) |
| --- | --- | --- |
| O=C(Nc1ccc(-c2cncc(C3CC3)n2)cn1)C1(c2ccnc(NS(=O)(=O)C3CC3)n2)CCOCC1 [P252, 4-(2-(cyclopropanesulfonamido)pyrimidin-4-yl)-N-(5-(6-cyclopropylpyrazin-2-yl)pyridin-2-yl)tetrahydro-2H-pyran-4-carboxamide] | ≤ 0.1 µM | +++ (>60 fold (+++)) |
| CCOc1cncc(-c2ccc(NC(=O)C3(c4ccnc(NS(=O)(=O)CC(C)C)n4)CCOCC3)nc2)n1 [P250, N-(5-(6-ethoxypyrazin-2-yl)pyridin-2-yl)-4-(2-((2-methylpropyl)sulfonamido)pyrimidin-4-yl)tetrahydro-2H-pyran-4-carboxamide] | 0.1 to 1 µM | +++ (>60 fold (+++)) |
| CCOc1cncc(-c2ccc(NC(=O)C3(c4cncc(NS(=O)(=O)C5CC5)n4)CCCCC3)nc2)n1 [P239, 1-(6-(cyclopropanesulfonamido)pyrazin-2-yl)-N-(5-(6-ethoxypyrazin-2-yl)pyridin-2-yl)cyclohexane-1-carboxamide] | ≤ 0.1 µM | +++ (>60 fold (+++)) |
| CCOc1cncc(-c2ccc(NC(=O)C3(c4ccnc(NS(=O)(=O)C5CC5)n4)CCN(C)CC3)nc2)n1 [P231, 4-(2-(Cyclopropanesulfonamido)pyrimidin-4-yl)-N-(5-(6-ethoxypyrazin-2-yl)pyridin-2-yl)-1-methylpiperidine-4-carboxamide] | 0.1 to 1 µM | +++ (>60 fold (+++)) |
| CCOc1cncc(-c2ccc(NC(=O)C3(c4ccnc(NS(=O)(=O)C5(C)CC5)n4)CCOCC3)nc2)n1 [P247, N-(5-(6-ethoxypyrazin-2-yl)pyridin-2-yl)-4-(2-((1-methylcyclopropane)-1-sulfonamido)pyrimidin-4-yl)tetrahydro-2H-pyran-4-carboxamide] | 0.1 to 1 µM | +++ (>60 fold (+++)) |
| CCOc1cncc(-c2ccc(NC(=O)C3(c4ccnc(NS(=O)(=O)C(C)(C)C)n4)CCOCC3)nc2)n1 [P246, 4-(2-((1,1-dimethylethyl)sulfonamido)pyrimidin-4-yl)-N-(5-(6-ethoxypyrazin-2-yl)pyridin-2-yl)tetrahydro-2H-pyran-4-carboxamide] | 0.1 to 1 µM | +++ (>60 fold (+++)) |
| CCOc1cncc(-c2ccc(NC(=O)C3(c4ccnc(NS(=O)(=O)C5CC5)n4)CCOCC3)c(C)c2)n1 [P240, 4-(2-(cyclopropanesulfonamido)pyrimidin-4-yl)-N-(4-(6-ethoxypyrazin-2-yl)-2-methylphenyl)tetrahydro-2H-pyran-4-carboxamide] | ≤ 0.1 µM | + (2-30 fold (+)) |
| O=C(Nc1ccc(-c2cncc(Cl)c2)cn1)C1(c2ccnc(NS(=O)(=O)C3CC3)n2)CCOCC1 [P253, N-(5′-chloro-[3,3′-bipyridin]-6-yl)-4-(2-(cyclopropanesulfonamido)pyrimidin-4-yl)tetrahydro-2H-pyran-4-carboxamide] | ≤ 0.1 µM | ++ (>30-60 fold (++)) |
